Measured values as given in US20220184183A1, “PHARMACEUTICAL COMPOSITION, FOR PREVENTING OR TREATING INFLAMMATORY DISEASES, COMPRISING OSTEOCALCIN” (GENEROATH CO., LTD., priority 2019, published 2022).
Where no end group is shown, it is not given here.

Key:
Format in all cases: cell-based
[1] = tested on: NF-κB promoter; test: TNF-α-induced NF-κB promoter (luciferase) activity; conditions: stated in the description, no method given
[2] = tested on: skeletal muscle cell line (C2C12); test: TNF-α-induced inflammatory cytokine production in skeletal muscle cells (ELISA, Real-Time PCR, western blot)
Description: (§1) First, skeletal muscle cell lines (C2C12) were obtained. Undercarboxylated osteocalcin (ucOCN, purchased from Bachem, Switzerland) was treated in a medium (DMEM medium containing 10% heat-inactivated fetal bovine serum (FBS), 100 U/mL of penicillin and […] of streptomycin, hereinafter the same) at four different concentrations of 0 ng/ml, 0.5 ng/ml, 5 ng/ml and 50 ng/ml, and skeletal muscle cell lines (C2C12) were prepared in three groups and cultured and pre-treated at 5% CO2, 37° C. for 8 hours, 24 hours, and 48 hours, respectively.
(§2) In order to induce an inflammatory response, each medium was treated with 10 ng/ml of TNF-α (purchased from Peprotech, USA), and cultured for 8 hours under the same conditions.
In order to observe the change in the expression level of TNF-α-induced inflammatory cytokines (TNF-α, IL-1β and IL-6) in skeletal muscle cells due to undercarboxylated osteocalcin, the following experiment was performed.
In the cells obtained from Example 1.1 above, the concentrations of TNF-α, IL-1β and IL-6 were measured through ELISA, and the expression levels of RNA and protein of IL-1β and IL-6 were identified through Real-Time PCR and western blot.

[3] = tested on: macrophage cell lines (RAW 264.7); test: TNF-α-induced inflammatory cytokines and inflammatory mediating enzyme proteins in immune cells (ELISA, western blot); conditions: ucOCN 0.5, 5, 50 ng/ml pretreatment 8, 24, 48 hours, then TNF-α 10 ng/ml 8 hours, FIGS. 7 and 8
Description: First, macrophage cell lines (RAW 264.7) were obtained as immune cells. Undercarboxylated osteocalcin (ucOCN) was treated in a medium at four different concentrations of 0 ng/ml, 0.5 ng/ml, 5 ng/ml and 50 ng/ml, and macrophage cell lines were prepared in three groups and cultured and pre-treated at 5% CO2, 37° C. for 8 hours, 24 hours, and 48 hours, respectively.
In order to induce an inflammatory response, each medium was treated with 10 ng/ml of TNF-α, and cultured for 8 hours under the same conditions to obtain a supernatant.
In order to observe changes in the expression level of TNF-α-induced inflammatory cytokines (TNF-α and IL-6) and inflammatory mediating enzyme proteins (iNOS and COX-2) in immune cells by undercarboxylated osteocalcin, the following experiments were performed.
In each supernatant obtained from Example 2.1 above, the concentrations of TNF-α, IL-1β and IL-6 were measured through ELISA, and the expression level of […] was identified through western blot.

[4] = tested on: NF-κB; test: Inhibition of TNF-α-induced NF-κB activity in skeletal muscle cells (western blot, immunofluorescence)
Description: In order to observe the effect of undercarboxylated osteocalcin on the activity of NF-κB induced by TNF-α in skeletal muscle cells, the following experiment was performed.
(§3) Undercarboxylated osteocalcin (ucOCN) was treated at a concentration of 0.5 ng/ml in the medium (DMEM medium containing 10% heat-inactivated fetal bovine serum (FBS), 100 U/mL of penicillin and […] of streptomycin, hereinafter the same), and skeletal muscle cell lines (C2C12) were prepared in three groups, and cultured and pre-treated at 5% CO2, 37° C. for 1 minute, 10 minutes, and 30 minutes, respectively.
(§4) In order to induce an inflammatory response, each medium was treated with TNF-α 10 ng/ml, and cultured for 8 hours under the same conditions.
For the cultured cells of each group, the phosphorylation level and the protein amounts in the nucleus of IκBα, IKK (hereinafter, intracytoplasmic) and P65 NF-κB in each group were measured through western blot, and immunofluorescence analysis for each group was performed.

[5] = tested on: skeletal muscle cell line (C2C12); test: Level of reactive oxygen species in TNF-α-stimulated skeletal muscle cells (DAPI and CellRox staining); conditions: ucOCN 0.5 and 5 ng/ml vs untreated group, TNF-α 10 ng/ml, FIG. 3
Description: as §1, §2
In order to identify the level of reactive oxygen species (ROS) in the undercarboxylated osteocalcin-treated cells by being induced inflammatory response with TNF-α in skeletal muscle cells, the following experiment was performed.
The cells obtained in Example 1.1 above were stained with DAPI and CellRox, and observed under a microscope.

[6] = tested on: JNK, p38 MAPK, and NF-κB; test: Subcellular signaling in TNF-α-stimulated skeletal muscle cells (western blot); conditions: C2C12; ucOCN 0.5 ng/ml pretreatment 1, 10, 30 minutes; TNF-α 10 ng/ml; FIG. 4
Description: In order to observe the effect of undercarboxylated osteocalcin on the subcellular signaling process on the inflammatory response induced by TNF-α in skeletal muscle cells, the following experiment was performed.
as §3, §4
For the cultured cells of each group, the protein amount and phosphorylation level of JNK, p38 MAPK, and NF-κB in each group were measured through western blot.

With “undercarboxylated osteocalcin (YLYQWLGAPVPYPDPLEPRREVCELNPDCDELADHIGFQEAYRRFYGPV; not fully specified; ends and bridges not checked; UniProt P02818 52-100, looked up) [osteocalcin in which at least one of the three gamma-carboxylglutamate residues is not γ-carboxylated; purchased from Bachem, Switzerland]” the “TNF-α-induced NF-κB luciferase activity” value [1] was “significantly inhibits”, the IL-1β production ([2]; TNF-α 10 ng/ml, FIG. 1) was “inhibitory effect of IL-1β production among inflammatory cytokines was remarkably shown” and the “IL-1β production (protein amount)” value ([2]; all treatment concentrations of ucOCN (0.5, 5, 50 ng/ml), FIG. 2) was “remarkable production inhibitory effect”. The “inhibition of inflammatory cytokine production by treatment time” value ([2]; group treated with ucOCN for 8 hours and 48 hours, FIG. 1) was “remarkably excellent inhibitory effect”, the “TNF-α (protein amount)” value ([2]; group treated with ucOCN for 8 hours, FIG. 2) was “excellent inhibitory effect” and the “IL-6 (protein amount)” value ([2]; ucOCN 0.5 ng/ml and 5 ng/ml within 24 hours, FIG. 2) was “remarkable inhibitory effect”. The “production of inflammatory cytokines TNF-α, IL-1β and IL-6” value ([2]; ucOCN 0.5, 5, 50 ng/ml pretreatment 8, 24, 48 hours, then TNF-α 10 ng/ml 8 hours, FIG. 1) was “inhibited the production of inflammatory cytokines”, the “production of inflammatory cytokines TNF-α, IL-1β, IL-6 and inflammatory mediating enzyme proteins iNOS and COX-2” value [3] was “inhibited the production of inflammatory cytokines and inflammatory mediating enzyme proteins” and the “cytoplasmic-to-nuclear translocation of NF-κB induced by TNF-α” value ([4]; C2C12, immunofluorescence analysis, FIG. 6) was “inhibited cytoplasmic-to-nuclear translocation of NF-κB”. The “PHOPHO-IκBα and total IκBα (TNF-α alone: phospho increased, total decreased)” value ([4]; C2C12 cytoplasm, ucOCN 0.5 ng/ml, TNF-α 10 ng/ml, FIG. 5) was “showed the opposite result”, the “level of reactive oxygen species” value [5] was “significantly inhibited” and the “protein amount of NF-κB” value [6] was “significantly inhibited”. The “protein amounts and phosphorylation levels of JNK and p38 MAPK” value [6] was “significantly inhibited”.
